These compounds were tested against T1, human recombinant mGluR5 (Homo sapiens, UniProt P41594) (assay: positive modulation of mGluR5, calcium based FLIPR assay). Settings: HEK 293 cell line expressing human recombinant mGluR5; EC50 of the modulation from peak Ca fluorescence signal after glutamate at approx. 5% basal stimulation.
T1 construct: expressed in transfected cells; host or cells: HEK 293
How it was run: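 HEK 293 cells expressing human recombinant mGluR5, Calcium-4 dye-loaded in Ringer solution pH 7.4. Compound (1% DMSO final) preincubated 5 min, then glutamate at ~5% of maximal effect added; peak Ca2+ fluorescence gives EC50 by nonlinear regression, normalized to DMSO (100%) and 10 μM CDPPB (200%) controls.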

T1 sequence (P41594 21-1212): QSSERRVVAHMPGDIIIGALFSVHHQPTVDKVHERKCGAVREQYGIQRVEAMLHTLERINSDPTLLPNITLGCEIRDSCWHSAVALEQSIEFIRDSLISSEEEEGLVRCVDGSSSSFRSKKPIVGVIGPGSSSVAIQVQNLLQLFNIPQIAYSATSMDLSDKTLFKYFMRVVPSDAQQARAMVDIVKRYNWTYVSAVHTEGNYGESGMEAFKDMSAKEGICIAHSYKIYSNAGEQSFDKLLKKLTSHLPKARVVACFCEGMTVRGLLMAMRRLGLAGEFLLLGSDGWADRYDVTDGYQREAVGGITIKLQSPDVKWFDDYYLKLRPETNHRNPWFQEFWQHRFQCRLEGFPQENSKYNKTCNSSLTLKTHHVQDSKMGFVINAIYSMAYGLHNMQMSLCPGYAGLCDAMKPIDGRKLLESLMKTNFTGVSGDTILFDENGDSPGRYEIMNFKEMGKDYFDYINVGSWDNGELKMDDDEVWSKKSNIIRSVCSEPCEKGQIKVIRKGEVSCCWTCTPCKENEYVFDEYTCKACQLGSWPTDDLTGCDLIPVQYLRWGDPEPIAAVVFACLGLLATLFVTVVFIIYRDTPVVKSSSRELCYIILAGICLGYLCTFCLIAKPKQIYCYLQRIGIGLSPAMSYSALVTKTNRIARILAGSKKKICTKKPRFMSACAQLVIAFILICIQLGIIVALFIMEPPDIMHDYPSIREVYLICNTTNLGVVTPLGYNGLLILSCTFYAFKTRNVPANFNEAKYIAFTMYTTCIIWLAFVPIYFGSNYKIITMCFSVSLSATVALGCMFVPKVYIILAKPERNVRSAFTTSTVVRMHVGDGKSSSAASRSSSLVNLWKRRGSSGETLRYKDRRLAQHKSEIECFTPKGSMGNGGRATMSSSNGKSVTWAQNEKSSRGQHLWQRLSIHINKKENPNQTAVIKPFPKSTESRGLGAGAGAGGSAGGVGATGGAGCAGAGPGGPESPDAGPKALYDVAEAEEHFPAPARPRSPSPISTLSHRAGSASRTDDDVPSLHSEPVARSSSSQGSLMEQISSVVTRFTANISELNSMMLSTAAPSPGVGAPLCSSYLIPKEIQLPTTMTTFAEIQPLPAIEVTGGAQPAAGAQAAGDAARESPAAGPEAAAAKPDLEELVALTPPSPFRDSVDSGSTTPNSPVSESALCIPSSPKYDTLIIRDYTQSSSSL

SMILES	EC50
CCc1cc(-c2cccc(Cl)c2)nn1CC(=O)N1Cc2nc(C)sc2C1 [Example 7.02.111]	334 nM
CCCc1cc(-c2ccc(F)c(C)c2)nn1CC(=O)N1CCN(c2nc(C)co2)CC1 [Example 7.02.166]	149 nM
Cc1cc(-c2cc(-c3ccccc3)n(CC(=O)N3Cc4cccnc4C3)n2)ccc1F [Example 7.02.229]	31 nM
N#Cc1ccc2c(c1)CCN(C(=O)Cn1nc(-c3ccccc3)cc1-c1ccccc1)C2 [Example 7.01.046]	1000 nM
COc1cc(C2CCN(C(=O)Cn3nc(-c4cccc(C)c4)cc3-c3ccccc3)CC2)ncn1 [Example 7.02.201]	171 nM
CCc1cc(-c2ccc(F)c(C)c2)nn1CC(=O)N1CCN(c2nc(C)co2)CC1 [Example 7.02.167]	370 nM
Cc1cc(-c2cc(-c3ccccc3)n(CC(=O)N3CCc4cnc(Nc5ccccc5)nc4CC3)n2)ccc1F [Example 7.01.080]	277 nM
COc1ccccc1N1CCN(C(=O)Cn2nc(-c3ccccc3)cc2-c2ccccc2)CC1=O [Example 7.01.011]	1970 nM
CCc1cc(-c2cccc(Cl)c2)nn1CC(=O)N1CCc2nc(N)sc2CC1 [Example 7.02.110]	156 nM
Cc1nc2c(s1)CCN(C(=O)Cn1nc(-c3ccc(C)c(F)c3)cc1-c1ccccc1)CC2 [Example 7.02.251]	34 nM
COc1ccc(-c2cc(C(C)C)n(CC(=O)N3CCc4nc(C)sc4CC3)n2)cc1C [Example 7.02.047]	221 nM
Cc1nnc(C2CCN(C(=O)Cn3nc(-c4ccc(F)c(C)c4)cc3-c3ccccc3)CC2)o1 [Example 7.02.019]	36 nM
Cc1cnc(C2CCN(C(=O)Cn3nc(-c4cccc(Cl)c4)cc3-c3ccccc3)CC2)o1 [Example 7.02.144]	68 nM
O=C(Cn1nc(-c2ccccc2)cc1-c1ccccc1)N1CCN(c2ccccc2F)C(=O)C1 [Example 7.01.014]	463 nM
COC(=O)c1ccc2c(c1)CCN(C(=O)Cn1nc(-c3ccccc3)cc1-c1ccccc1)CC2 [Example 7.01.030]	484 nM
CCc1cc(-c2ccc(C)c(C)c2)nn1CC(=O)N1CCC(c2ncc(OC)cn2)CC1 [Example 7.02.077]	1800 nM
COc1cc(-c2cc(-c3ccccc3)n(CC(=O)N3CCc4nc(N)sc4CC3)n2)ccc1F [Example 7.02.149]	42 nM
Cc1ccc(-c2cc(-c3ccccc3)n(CC(=O)N3Cc4nc(C)sc4C3)n2)nc1 [Example 7.02.118]	127 nM
CCc1cccc(-c2cc(CC)n(CC(=O)N3CCN(c4cccc(OC)c4)C(=O)C3)n2)c1 [Example 7.02.065]	194 nM
O=C(Cn1nc(-c2ccccc2)cc1-c1ccccc1)N1CCN(c2cccc(F)c2)C(=O)C1 [Example 7.01.034]	398 nM
Cc1nc2c(o1)CN(C(=O)Cn1nc(-c3ccc(OC(F)F)cn3)cc1-c1ccccc1)C2 [Example 7.02.244]	48 nM
CCc1cc(-c2ccc(F)cc2)nn1CC(=O)N1CCc2nc(N)sc2CC1 [Example 7.02.030]	1760 nM
N#Cc1cccc(-c2cc(-c3ccccc3)n(CC(=O)N3CCc4nc(N)sc4CC3)n2)c1 [Example 7.02.190]	29 nM

SMILES	EC50
COc1ccc2c(c1)CN(C(=O)Cn1nc(-c3ccccc3)cc1-c1ccccc1)CC2 [Example 7.01.007]	1540 nM
Cc1nc2c(o1)CN(C(=O)Cn1nc(-c3ccccc3)cc1-c1ccccc1)CC2 [Example 7.01.002]	592 nM
CCc1cc(-c2ccc(F)c(C)c2)nn1CC(=O)N1CCc2nc(C)sc2CC1C (stereo not drawn) [Example 7.01.074]	91 nM
Cc1cccc(-c2cc(-c3ccccc3)n(CC(=O)N3CCc4nc(N)sc4CC3)n2)c1 [Example 7.02.199]	16 nM
Cc1nc2c(s1)CN(C(=O)Cn1nc(-c3ccc(F)cn3)cc1-c1ccccc1)C2 [Example 7.02.057]	913 nM
O=C(Cn1nc(-c2ccccc2)cc1-c1ccccc1)N1CCC(c2nccs2)CC1 [Example 7.01.044]	1850 nM
COc1ccc2c(c1)CCN(C(=O)Cn1nc(-c3ccccc3)cc1-c1ccccc1)C2 [Example 7.01.018]	538 nM
Nc1nc2c(s1)CCN(C(=O)Cn1nc(-c3ccc(F)cc3)cc1-c1ccc(F)cc1)CC2 [Example 7.02.001, 1-(2-Amino-4,5,7,8-tetrahydro-thiazolo (4,5-d)azepin-6-yl)-2-[3,5-bis-(4-fluoro-phenyl)-pyrazol-1-yl]-ethanone]	55 nM
CCc1nnc(C2CCN(C(=O)Cn3nc(-c4ccc(F)c(C)c4)cc3-c3ccccc3)CC2)o1 [Example 7.02.218]	54 nM
O=C(Cn1nc(-c2ccccc2)cc1-c1ccccc1)N1CCN(Cc2ccccc2)C(=O)C1 [Example 7.02.063]	1730 nM
CCc1cc(-c2ccc(F)c(C)c2)nn1CC(=O)N1CCc2nc(C)sc2C1 [Example 7.01.067]	122 nM
COc1nc2c(s1)CCN(C(=O)Cn1nc(-c3ccc(F)c(C)c3)cc1-c1ccccc1)CC2 [Example 7.02.161]	35 nM
N#Cc1ccc2c(c1)CN(C(=O)Cn1nc(-c3ccccc3)cc1-c1ccccc1)CC2 [Example 7.01.031]	1870 nM
Cc1cc(-c2cc(-c3ccccc3)n(CC(=O)N3CCC(c4ccccn4)CC3)n2)ccc1F [Example 7.02.013]	92 nM
CC(=O)Nc1ccc2c(c1)CCN(C(=O)Cn1nc(-c3ccc(F)c(C)c3)cc1-c1ccccc1)CC2 [Example 7.01.097]	109 nM
COc1cnc(C2CCN(C(=O)Cn3nc(-c4ccc(C)c(C)c4)cc3-c3ccccc3)CC2)nc1 [Example 7.02.088]	254 nM
Cc1nc2c(s1)CN(C(=O)Cn1nc(-c3ccc(F)cn3)cc1-c1ccc(F)cc1)C2 [Example 7.02.059]	287 nM
Cc1ccc(-c2cc(-c3ccccc3)n(CC(=O)N3CCc4nc(N)sc4CC3)n2)cc1C [Example 7.02.094]	49 nM
CCCc1cc(-c2ccc(F)c(C)n2)nn1CC(=O)N1Cc2nc(C)sc2C1 [Example 7.02.248]	290 nM
COc1ccc(-c2cc(C(C)C)n(CC(=O)N3Cc4ccc(OC)cc4C3)n2)cc1 [Example 7.02.040]	1700 nM
COc1cnc(C2CCN(C(=O)Cn3nc(-c4cccc(C)c4)cc3-c3ccccc3)CC2)nc1 [Example 7.02.203]	178 nM
Cc1cnc(C2=CCN(C(=O)Cn3nc(-c4cccc(Cl)c4)cc3-c3ccccc3)CC2)o1 [Example 7.02.142]	27 nM
CCCc1cc(-c2ccc(F)c(C)c2)nn1CC(=O)N1CC=C(c2ncc(C)o2)CC1 [Example 7.02.206]	6 nM

SMILES	EC50
COCc1cc(-c2ccc(F)c(C)c2)nn1CC(=O)N1CCc2nc(N)sc2CC1 [Example 7.01.056]	253 nM
Cc1noc(N2CCN(C(=O)Cn3nc(-c4ccc(F)c(C)c4)cc3-c3ccccc3)CC2)n1 [Example 7.02.169]	20 nM
Cc1nc2c(s1)CCN(C(=O)Cn1nc(-c3ccc(C)c(C)c3)cc1-c1ccccc1)CC2 [Example 7.02.086]	11 nM
Cc1cc(-c2cc(C(C)C)n(CC(=O)N3CCc4nc(N)sc4CC3)n2)ccc1F [Example 7.02.054]	186 nM
Cc1cc(-c2cc(-c3ccccc3)n(CC(=O)N3CCc4nc(N)sc4CC3)n2)ncc1F [Example 7.02.156]	170 nM
Cc1nc2c(s1)CCN(C(=O)Cn1nc(-c3ccc(F)c(C)c3)cc1C1CCCCC1)CC2 [Example 7.02.048]	31 nM
O=C(Cn1nc(-c2ccccc2)cc1-c1ccccc1)N1CCc2ncsc2CC1 [Example 7.02.004]	689 nM
COc1cc(C2=CCN(C(=O)Cn3nc(-c4ccc(F)c(C)c4)cc3-c3ccccc3)CC2)ncn1 [Example 7.02.022]	11 nM
CC(=O)Nc1nc2c(s1)CCN(C(=O)Cn1nc(-c3ccccc3)cc1-c1ccccc1)CC2 [Example 7.01.021]	1530 nM
COc1cc(-c2cc(C(C)C)n(CC(=O)N3CCc4nc(N)sc4CC3)n2)ccc1F [Example 7.02.062]	323 nM
Cc1nnc(N2CCN(C(=O)Cn3nc(-c4ccc(C)c(F)c4)cc3-c3ccccc3)CC2)o1 [Example 7.02.250]	65 nM
Cc1nc2c(s1)CCN(C(=O)Cn1nc(-c3cccc(Cl)c3)cc1-c1ccccc1)CC2 [Example 7.02.145]	15 nM
O=C(Cn1nc(-c2ccccc2)cc1-c1ccccc1)N1CCc2nc(-c3ccccc3)nc(O)c2C1 [Example 7.02.002]	1170 nM
CCc1cc(-c2cccc(Cl)c2)nn1CC(=O)N1CCN(c2nnc(C)o2)CC1 [Example 7.02.112]	404 nM
CCc1cc(-c2cccc(C#N)c2)nn1CC(=O)N1Cc2nc(C)sc2C1 [Example 7.02.186]	326 nM
COc1ccc(-c2cc(C(C)C)n(CC(=O)N3CCc4nc(N)sc4CC3)n2)cc1 [Example 7.02.042]	192 nM
CCc1cc(-c2ccc(F)c(C)c2)nn1CC(=O)N1Cc2cccnc2C1 [Example 7.02.230]	878 nM
COc1cccc2c1CCN(C(=O)Cn1nc(-c3ccccc3)cc1-c1ccccc1)C2 [Example 7.01.015]	1810 nM
CCc1cc(-c2ccc(F)c(C)c2)nn1CC(=O)N1CCc2nc(C)sc2CC1 [Example 7.02.024]	29 nM
COc1cc2c(cc1OC)CCN(C(=O)Cn1nc(-c3ccc(F)c(C)c3)cc1-c1ccccc1)CC2 [Example 7.01.079]	447 nM
CCc1cc(-c2ccc(F)c(C)c2)nn1CC(=O)N1CCC(c2nnc(COC)o2)CC1 [Example 7.02.228]	398 nM
Cc1nc2c(o1)CN(C(=O)Cn1nc(-c3ccc(C)c(F)c3)cc1-c1ccccc1)C2 [Example 7.02.253]	41 nM
CCc1cc(-c2ccc(F)c(C)c2)nn1CC(=O)N1Cc2nc(C)sc2C1 [Example 7.02.025]	148 nM

From patent US8741892B2, “Compounds” (Boehringer Ingelheim International GmbH, priority 2011, dated 2014)
